Results taken from the NIST ThermoML archive (doi:10.1016/j.tca.2011.12.010).
Where “and” joins values, the source holds several entries; their conditions need not be identical. Identical values can stand only once.

Test: molar heat capacity at constant pressure
Settings: 101.33 kPa, Small sample (50 mg) DSC

O=[N+]([O-])[O-].O=[N+]([O-])[O-].O=[N+]([O-])[O-].O=[N+]([O-])[O-].[K+].[K+].[Mg+2] [bis-potassium magnesium nitrate]
Settings	molar heat capacity at constant pressure
298.15 K, Crystal 2	308 J/K/mol
299 K, Crystal 2	308.7 J/K/mol
300 K, Crystal 2	309.8 J/K/mol
301 K, Crystal 2	310.5 J/K/mol
302 K, Crystal 2	310.8 J/K/mol
303 K, Crystal 2	311.5 J/K/mol
304 K, Crystal 2	312.2 J/K/mol
305 K, Crystal 2	312.9 J/K/mol
306 K, Crystal 2	314 J/K/mol
307 K, Crystal 2	314.7 J/K/mol
308 K, Crystal 2	315.7 J/K/mol
309 K, Crystal 2	316.4 J/K/mol
310 K, Crystal 2	317.5 J/K/mol
311 K, Crystal 2	318.5 J/K/mol
312 K, Crystal 2	319.2 J/K/mol
313 K, Crystal 2	319.9 J/K/mol
314 K, Crystal 2	322 J/K/mol
315 K, Crystal 2	322 J/K/mol
316 K, Crystal 2	322.7 J/K/mol
317 K, Crystal 2	323.8 J/K/mol
318 K, Crystal 2	324.8 J/K/mol
319 K, Crystal 2	325.9 J/K/mol
320 K, Crystal 2	326.9 J/K/mol
321 K, Crystal 2	328 J/K/mol
325 K, Crystal 2	329 J/K/mol
326 K, Crystal 2	328 J/K/mol
327 K, Crystal 2	329.7 J/K/mol
328 K, Crystal 2	330.4 J/K/mol
329 K, Crystal 2	331.1 J/K/mol
330 K, Crystal 2	331.1 J/K/mol
331 K, Crystal 2	331.8 J/K/mol
332 K, Crystal 2	332.9 J/K/mol
333 K, Crystal 2	334.3 J/K/mol
334 K, Crystal 2	334.3 J/K/mol
335 K, Crystal 2	334.6 J/K/mol
336 K, Crystal 2	335.3 J/K/mol
337 K, Crystal 2	335.7 J/K/mol
338 K, Crystal 2	336.4 J/K/mol
339 K, Crystal 2	336.7 J/K/mol
340 K, Crystal 2	337.1 J/K/mol
341 K, Crystal 2	338.1 J/K/mol
342 K, Crystal 2	338.5 J/K/mol
343 K, Crystal 2	338.8 J/K/mol
344 K, Crystal 2	339.9 J/K/mol
345 K, Crystal 2	341.3 J/K/mol
346 K, Crystal 2	342 J/K/mol
347 K, Crystal 2	341.6 J/K/mol
348 K, Crystal 2	340.6 J/K/mol
349 K, Crystal 2	340.6 J/K/mol
350 K, Crystal 2	340.9 J/K/mol
351 K, Crystal 2	341.3 J/K/mol
352 K, Crystal 2	342 J/K/mol
353 K, Crystal 2	342.7 J/K/mol
354 K, Crystal 2	343.4 J/K/mol
355 K, Crystal 2	344.1 J/K/mol
356 K, Crystal 2	344.8 J/K/mol
357 K, Crystal 2	345.5 J/K/mol
358 K, Crystal 2	346.2 J/K/mol
359 K, Crystal 2	346.9 J/K/mol
360 K, Crystal 2	347.6 J/K/mol
361 K, Crystal 2	348.3 J/K/mol
362 K, Crystal 2	349.3 J/K/mol
363 K, Crystal 2	350.4 J/K/mol
364 K, Crystal 2	351.4 J/K/mol
365 K, Crystal 2	352.5 J/K/mol
366 K, Crystal 2	353.5 J/K/mol
367 K, Crystal 2	354.6 J/K/mol
368 K, Crystal 2	355.3 J/K/mol
369 K, Crystal 2	356 J/K/mol
370 K, Crystal 2	356.7 J/K/mol
371 K, Crystal 2	357.7 J/K/mol
372 K, Crystal 2	357.8 J/K/mol
373 K, Crystal 2	358.6 J/K/mol
374 K, Crystal 2	360.4 J/K/mol
375 K, Crystal 2	362.7 J/K/mol
376 K, Crystal 2	367.5 J/K/mol
377 K, Crystal 2	372.4 J/K/mol
378 K, Crystal 2	374.9 J/K/mol
379 K, Crystal 2	375.6 J/K/mol
380 K, Crystal 2	375.8 J/K/mol
381 K, Crystal 2	376 J/K/mol
382 K, Crystal 2	376.3 J/K/mol
383 K, Crystal 2	377.7 J/K/mol
384 K, Crystal 2	379.1 J/K/mol
385 K, Crystal 2	380.8 J/K/mol
386 K, Crystal 2	381.9 J/K/mol
387 K, Crystal 2	382.2 J/K/mol
388 K, Crystal 2	382.6 J/K/mol
389 K, Crystal 2	385 J/K/mol
390 K, Crystal 2	386.8 J/K/mol
391 K, Crystal 2	388.2 J/K/mol
392 K, Crystal 2	389.6 J/K/mol
393 K, Crystal 2	391.3 J/K/mol
394 K, Crystal 2	393.8 J/K/mol
395 K, Crystal 2	395.2 J/K/mol
396 K, Crystal 2	397.6 J/K/mol
397 K, Crystal 2	399.7 J/K/mol
398 K, Crystal 2	401.5 J/K/mol
399 K, Crystal 2	403.2 J/K/mol
400 K, Crystal 2	405.3 J/K/mol
401 K, Crystal 2	409.5 J/K/mol
402 K, Crystal 2	412.7 J/K/mol
403 K, Crystal 2	422.1 J/K/mol and 428.4 J/K/mol
403.15 K, Crystal 2	428.4 J/K/mol
404 K, Crystal 2	811 J/K/mol
405 K, Crystal 1	1042.3 J/K/mol
406 K, Crystal 1	900.2 J/K/mol
407 K, Crystal 1	714.4 J/K/mol
408 K, Crystal 1	611.1 J/K/mol
409 K, Crystal 1	562.5 J/K/mol
410 K, Crystal 1	518 J/K/mol
411 K, Crystal 1	464.1 J/K/mol
412 K, Crystal 1	426.3 J/K/mol
413 K, Crystal 1	409.2 J/K/mol
414 K, Crystal 1	403.6 J/K/mol
415 K, Crystal 1	402.9 J/K/mol
415.15 K, Crystal 1	402.9 J/K/mol
416 K, Crystal 1	403.2 J/K/mol
417 K, Crystal 1	403.6 J/K/mol
418 K, Crystal 1	404.3 J/K/mol
419 K, Crystal 1	405.3 J/K/mol
420 K, Crystal 1	406.4 J/K/mol
421 K, Crystal 1	409.2 J/K/mol
422 K, Crystal 1	408.5 J/K/mol
423 K, Crystal 1	407.8 J/K/mol
424 K, Crystal 1	407.3 J/K/mol
425 K, Crystal 1	408.5 J/K/mol
426 K, Crystal 1	406.3 J/K/mol
427 K, Crystal 1	405.9 J/K/mol
428 K, Crystal 1	404.1 J/K/mol
429 K, Crystal 1	403.2 J/K/mol
430 K, Crystal 1	405 J/K/mol and 410 J/K/mol
431 K, Crystal 1	407.1 J/K/mol
432 K, Crystal 1	409.5 J/K/mol
433 K, Crystal 1	412.7 J/K/mol
434 K, Crystal 1	415.1 J/K/mol
435 K, Crystal 1	417.2 J/K/mol
436 K, Crystal 1	419 J/K/mol
437 K, Crystal 1	417.6 J/K/mol
438 K, Crystal 1	420 J/K/mol
439 K, Crystal 1	421.4 J/K/mol
440 K, Crystal 1	425.3 J/K/mol
441 K, Crystal 1	427.7 J/K/mol
442 K, Crystal 1	429.8 J/K/mol
443 K, Crystal 1	431.6 J/K/mol
444 K, Crystal 1	434 J/K/mol
445 K, Crystal 1	436.5 J/K/mol
446 K, Crystal 1	438.9 J/K/mol
447 K, Crystal 1	441.4 J/K/mol
448 K, Crystal 1	444.5 J/K/mol
449 K, Crystal 1	449.1 J/K/mol
450 K, Crystal 1	451.5 J/K/mol
451 K, Crystal 1	454.3 J/K/mol
452 K, Crystal 1	458.9 J/K/mol
453 K, Crystal 1	463.4 J/K/mol
454 K, Crystal 1	469 J/K/mol
455 K, Crystal 1	476 J/K/mol
456 K, Crystal 1	484.1 J/K/mol
457 K, Crystal 1	494.9 J/K/mol
458 K, Crystal 1	508.9 J/K/mol and 511.7 J/K/mol
458.15 K, Crystal 1	511.7 J/K/mol
459 K, Crystal 1	532.4 J/K/mol
460 K, Crystal 1	561.4 J/K/mol
